# According to patent publication US9290486B1, “Compositions and methods for the treatment of epilepsy” (CELLIX BIO PRIVATE LIMITED, priority 2014, dated 2016):
# Like-named read-outs stand apart in the source and are kept apart here.
# Experiment: Blood and cerebrospinal fluid pharmacokinetics after acute intraperitoneal administration in freely moving rats
# Type: in vivo
# Settings: for serum and CSF concentrations versus dose: intraperitoneal, 20, 40 and 80 mg/kg; for Elimination half-life (t1/2)-CSF (Mean) / penetration of the blood brain barrier / Elimination half-life (t1/2)-Serum (Mean): intraperitoneal; for penetration of the blood brain barrier: appearance in serum and CSF; for Tmax: rat, ip, acute intraperitoneal, 20, 40 and 80 mg/kg
# Protocol: Blood and Cerebrospinal Fluid Pharmacokinetics in Comparison of the Levetiracetam and Formula II (2-1) in Rats
# The temporal pharmacokinetic interrelationship of levetiracetam and Formula II (2-1) in blood and cerebrospinal fluid (CSF) was studied after acute intraperitoneal administration of levetiracetam and Formula II (2-1), (20, 40 and 80 mg/kg), using an animal model that permits concurrent blood and CSF sampling in freely moving rats.
# [1] = cerebrospinal fluid, read-out: Tmax mean range, CSF
# [2] = serum, read-out: time to maximum concentration (Tmax) mean range, serum
Elimination half-life (t1/2)-CSF (Mean) [h],Elimination half-life (t1/2)-Serum (Mean) (serum) [h],Tmax [1] [h],Tmax [2] [h],Structure (SMILES),serum and CSF concentrations versus dose,penetration of the blood brain barrier
4.8 to 5.6,2.3 to 3.4,2.14 to 2.83,0.47 to 0.89,CC[C@@H](C(=O)NC(=O)OC(C)OC(=O)CCCC[C@@H]1CCSS1)N1CCCC1=O (stereo partly drawn) [Formula II (2-1)],rose essentially linearly and dose-dependently,ready penetration of the blood brain barrier
4.4 to 4.9,1.8 to 2.8,1.33 to 1.92,0.25 to 0.5,CC[C@@H](C(N)=O)N1CCCC1=O [levetiracetam],rose essentially linearly and dose-dependently,ready penetration of the blood brain barrier
